# Results: patent US10189782B2, “Derivatives of indole for the treatment of cancer, viral infections and lung diseases” (BIOKINESIS, priority 2012, dated 2019)
# pIC50: −log10 of the molar value. Read-outs that look alike come from different tables or passages of the source.
# Experiments:
# [1] = target: T1, Human recombinant MKlp2 motor domain1-519, His tagged (Homo sapiens, UniProt O95235); assay: Microtubule stimulated ATPase activity of the MKlp2 motor domain (Kinesin ELIPA Assay Kit); format: biochemical; settings: read-out: MKIp2 IC50
# T1 construct: Human recombinant MKlp2 motor domain1-519, His tagged; His; purchased Cytoskeleton MP05
# T1 sequence (O95235 1-519): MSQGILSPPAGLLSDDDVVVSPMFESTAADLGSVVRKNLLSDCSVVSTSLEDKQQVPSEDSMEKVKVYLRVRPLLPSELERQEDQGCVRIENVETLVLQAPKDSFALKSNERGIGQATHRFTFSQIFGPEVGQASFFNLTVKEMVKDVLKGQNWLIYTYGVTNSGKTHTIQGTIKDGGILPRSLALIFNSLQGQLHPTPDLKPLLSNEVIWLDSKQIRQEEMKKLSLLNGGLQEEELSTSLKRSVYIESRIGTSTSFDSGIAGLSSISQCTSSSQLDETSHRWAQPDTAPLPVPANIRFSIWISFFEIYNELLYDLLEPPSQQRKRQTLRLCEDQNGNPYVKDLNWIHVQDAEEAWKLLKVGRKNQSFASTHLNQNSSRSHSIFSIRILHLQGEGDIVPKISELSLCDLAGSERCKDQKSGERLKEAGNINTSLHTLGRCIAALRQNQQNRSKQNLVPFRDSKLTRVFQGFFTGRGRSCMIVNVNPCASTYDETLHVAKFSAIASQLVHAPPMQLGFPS
# Experimental: Evaluation of Inhibitory Effects on the Microtubule Stimulated ATPase Activity of the MKlp2 Motor Domain.
# MKlp2 ATPase activity was measured by monitoring real time free phosphate generation using the Kinesin ELIPA Assay Kit. The assay is based upon an absorbance shift (330 nm-360 nm) that occurs when 2-amino-6-mercapto-7-methylpurine ribonucleoside (MESG) is catalytically converted to 2-amino-6-mercapto-7-methylpurine in the presence of inorganic phosphate (Pi). One molecule of Pi will yield one molecule of 2-amino-6-mercapto-7-methylpurine in an essentially irreversible reaction.
# All experiments were performed at 22° C.
# Condition 1, compound preparation.
# The compounds were dissolved in DMSO at 30× the maximum concentration to be tested. […] DMSO solutions were pipetted directly into each well.
# Condition 2, reaction's “motor mix”.
# The following were mixed sequentially in the specified order at RT to obtain the “motor mix”.
# 20 mL: 15 mM Pipes-NaOH pH 7.0, 10 mM MgCl2, 30 μM Tx (Buffer 1).
# 10 mL: 5× MSEG (ELIPA 1 reagent, Cat. # BK051).
# 10 mL: 2.5 mg/mL porcine brain microtubules (3×10 mg Cat. # MT002-XL resuspended in 12 mL of Buffer 1).
# 0.5 mL: 100×PNP (ELIPA 2 reagent, cat. # BK051).
# Condition 3, reaction initiation.
# The motor mix was pipetted into each well to obtain 80% of total volume. The reaction was initiated by adding a 20% of total volume of 5 mM ATP into each well.
# The reactions were measured in a SpectraMax M2 (Molecular Devices) set in kinetic mode and 360 nm absorbance wavelength. The start protocol was 5 second rapid circular mixing, 21 readings, 30 seconds apart.
# K562 cells = assay: Cytotoxicity on human cancer cells (WST-1), K562; format: cell-based; settings: WST-1 on D4, read-out: K562 IC50
# Experimental: Evaluation of Cytotoxicity Effects on Human Cancer Cells
# The effects of the compounds of the invention on the viability of human cancer cells were studied on various human cancer cell lines of differing tissue origins (A549, NCI-H460: lung cancer; MDA-MB-231: breast cancer; HCT-116, HT-29: colon cancer; MIA-PaCa-2: pancreatic cancer; K562: leukaemia). All cell lines were obtained from ATCC or ECACC. Cells were cultured in the culture media described below, under a 37° C., 5% CO2 humidified atmosphere, according to a standard operating procedure.
# On D0, the cells were plated in 90 μl in 96 wells plates at densities ranging from 500 to 5,000 cells per well.
# Following addition of the test substance the cells were protected from light. The solvents (DMSO and specific control solvent were added at the maximal concentration: 10 μl/well (3 wells/condition)).
# On D4, the Cell Proliferation Reagent WST-1 was added to each well (10 μl/well), according to a standard operating procedure. The cells were then incubated for 30 min to 4 h at 37° C.-5% CO2. After these incubations, the 96-well plates were shaken thoroughly for 1 min with Multiskan® EX apparatus (Thermo Labsystems, France). The absorbence was measured at 450 nm, the reference wavelength being 620 nm. The analysis of the results was performed with the Ascent software 2.6 (Thermo Labsystems, France), Microsoft Excel 2003 and GraphPad Prism 4.03 softwares to give the concentration of the compounds that induces the death of 50% of the cells (IC50).
# [2] = Table 6 (prodrugs, formula II), K562 cells
SMILES,"pIC50 ([1]; Table 3, 22° C.)","pIC50 ([1]; Table 6 (prodrugs, formula II))",pIC50 (K562 cells; [2]),"pIC50 (K562 cells; Table 4, K562 leukaemia cells)"
"COc1ccc(C#N)cc1/C=C(\C#N)c1cn(C(=O)CC(NC(=O)OC(C)(C)C)C(=O)OCc2ccccc2)c2ccc(Br)cc12 (stereo in doubt) [Example 65, (R,Z)-benzyl-4-(5-bromo-3-(1-cyano-2-(5-cyano-2-methoxyphenyl)vinyl)-1H-indol-1-yl)-2-(tert-butoxycarbonylamino)-4-oxobutanoate]",,5.00,7.40,
"COc1ccc(C#N)cc1/C=C(\C#N)c1cn(C(=O)CCC(NC(=O)OC(C)(C)C)C(=O)OC(C)(C)C)c2ccc(Br)cc12 (stereo in doubt) [Example 66, (R,Z)-tert-butyl-5-(5-bromo-3-(1-cyano-2-(5-cyano-2-methoxyphenyl)vinyl)-1H-indol-1-yl)-2-(tert-butoxycarbonylamino)-5-oxopentanoate]",,5.27,7.52,
"COc1ccc(C#N)cc1/C=C(\C#N)c1cn(C(=O)CC(N)C(=O)OCc2ccccc2)c2ccc(Br)cc12 (stereo in doubt) [Example 67, (R,Z)-benzyl-2-amino-4-(5-bromo-3-(1-cyano-2-(5-cyano-2-methoxyphenyl)vinyl)-1H-indol-1-yl)-4-oxobutanoate]",,5.51,7.40,
"N#C/C(=C\c1cnccc1Cl)c1c[nH]c2ccc(Cl)cc12 [Example 3, (Z)-2-(5-chloro-1H-indol-3-yl)-3-(4-chloropyridin-3-yl)acrylonitrile]",6.10,,,5.44
"N#C/C(=C\c1cnccc1Cl)c1c[nH]c2ccc(Br)cc12 [Example 4, (Z)-2-(5-bromo-1H-indol-3-yl)-3-(4-chloropyridin-3-yl)acrylonitrile]",6.15,,,5.85
"CSc1ccncc1/C=C(\C#N)c1c[nH]c2ccc(Br)cc12 [Example 15, (Z)-2-(5-bromo-1H-indol-3-yl)-3-(4-(methylthio)pyridin-3-yl)acrylonitrile]",6.70,,,5.54
"CCN(CC)c1ccncc1/C=C(\C#N)c1c[nH]c2ccc(Br)cc12 [Example 24, (Z)-2-(5-bromo-1H-indol-3-yl)-3-(4-(diethylamino)pyridin-3-yl)acrylonitrile]",5.96,,,5.51
"N#C/C(=C\c1cnccc1-c1ccoc1)c1c[nH]c2ccc(Cl)cc12 [Example 29, (Z)-2-(5-chloro-1H-indol-3-yl)-3-(4-(furan-3-yl)pyridin-3-yl)acrylonitrile]",7.52,,,5.33
"N#C/C(=C\c1cnccc1-c1ccoc1)c1c[nH]c2ccc(Br)cc12 [Example 34, (Z)-2-(5-bromo-1H-indol-3-yl)-3-(4-(furan-3-yl)pyridin-3-yl)acrylonitrile]",7.15,,,5.66
"N#C/C(=C/c1cnccc1-c1ccoc1)c1c[nH]c2ccc(Br)cc12 [Example 34b, (E)-2-(5-bromo-1H-indol-3-yl)-3-(4-(furan-3-yl)pyridin-3-yl)acrylonitrile]",6.02,,,4.85

# Second part, led by results:
"pIC50 ([1]; Table 3, 22° C.)",SMILES,"pIC50 ([1]; Table 6 (prodrugs, formula II))",pIC50 (K562 cells; [2]),"pIC50 (K562 cells; Table 4, K562 leukaemia cells)"
6.21,"COc1ccncc1/C=C(/C#N)c1c[nH]c2ccc(Br)cc12 [Example 5b, (E)-2-(5-bromo-1H-indol-3-yl)-3-(4-methoxypyridin-3-yl)acrylonitrile]",,,5.41
6.05,"CN(C)c1ccncc1/C=C(\C#N)c1c[nH]c2ccc(Br)cc12 [Example 8, (Z)-2-(5-bromo-1H-indol-3-yl)-3-(4-(dimethylamino)pyridin-3-yl)acrylonitrile]",,,5.12
7.00,"COc1ccncc1/C=C(\C#N)c1c[nH]c2ccc(Cl)cc12 [Example 9, (Z)-2-(5-chloro-1H-indol-3-yl)-3-(4-methoxypyridin-3-yl)acrylonitrile]",,,5.85
6.52,"COc1ccc2[nH]cc(/C(C#N)=C/c3cnccc3OC)c2c1 [Example 12, (Z)-2-(5-methoxy-1H-indol-3-yl)-3-(4-methoxypyridin-3-yl)acrylonitrile]",,,6.05
